Where a name gives a salt, the structure may show the parent alone.
Each compound was assayed against human BACE1 (Homo sapiens (Human), UniProt P56817) (assay: BACE1 binding assay (SPA-based, radioligand displacement)). Conditions: pH 4.5, Ki calculated from IC50.
human BACE1, sequence (P56817 46-501): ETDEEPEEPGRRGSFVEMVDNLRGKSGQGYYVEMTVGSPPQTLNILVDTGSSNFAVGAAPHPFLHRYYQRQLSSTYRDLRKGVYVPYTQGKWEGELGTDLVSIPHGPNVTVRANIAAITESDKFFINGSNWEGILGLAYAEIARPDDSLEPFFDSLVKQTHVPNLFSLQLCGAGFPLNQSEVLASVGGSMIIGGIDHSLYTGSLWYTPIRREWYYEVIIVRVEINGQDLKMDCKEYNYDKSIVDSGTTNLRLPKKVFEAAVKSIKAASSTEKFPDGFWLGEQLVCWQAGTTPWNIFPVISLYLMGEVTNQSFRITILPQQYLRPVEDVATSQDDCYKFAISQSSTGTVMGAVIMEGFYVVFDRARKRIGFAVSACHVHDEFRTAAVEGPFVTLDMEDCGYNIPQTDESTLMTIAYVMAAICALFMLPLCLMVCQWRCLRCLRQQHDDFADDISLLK
Description: The binding assay was performed as SPA-based assay using a biotinylated form of human BACE1 recombinantly expressed and subsequently purified from Freestyle HEK293 cells. The binding assay was run in a 50 mM sodium acetate buffer, pH 4.5 containing 50 mM NaCl and 0.03% Tween-20 in white clear bottom 384 plates (Corning #3653). 10 nM (final concentration) radioligand ([^3H]—N-((1S,2R)-1-benzyl-3-cyclopropylamino-2-hydroxy-propyl)-5-(methanesulfonyl-methyl-amino)-N—((R)-1-phenyl-ethyl)-isophthalamide) (TRQ11569 purchased from GE Healthcare) was mixed with test compound at a given concentration, 6 nM (final concentration) human BACE1 and 25 μg Streptavidin coated PVT core SPA beads (RPNQ0007, GE Healthcare Life Sciences) in a total volume of 40 μl. Several concentrations of each test compound were tested in the assay for IC50 determination. The plates were incubated for one hour at room temperature and counted in a Wallac Trilux counter. Total and non-specific binding were determined using buffer and 1 μM (final concentration) of the high affinity BACE1 reference inhibitor (S)-6-[3-chloro-5-(5-prop-1-ynyl-pyridin-3-yl)-thiophen-2-yl]-2-imino-3,6-dimethyl-tetrahydro-pyrimidin-4-one, respectively. For each test compound, a IC50 value (the concentration mediating 50% inhibition of the specific binding of the radioligand) was determined from concentration-response curve and used to calculate the Ki from the equation Ki=IC50/(1+L/Kd), where L and Kd are the final concentration of the radioligand used in the assay and the dissociation constant of the radioligand, respectively. The Kd of the radioligand was determined from saturation binding experiments.
With C[C@@]1(F)CC(F)(F)[C@@](C)(c2cc(NC(=O)c3ccc(Cl)cn3)ccc2F)N=C1N [Compound 33, N-(3-((2R,5R)-6-amino-3,3,5-trifluoro-2,5-dimethyl-2,3,4,5-tetrahydropyridin-2-yl)-4-fluorophenyl)-5-chloropicolinamide] the Ki was 62 nM. Compound Cc1cn(C)c(C(=O)Nc2ccc(F)c([C@@]3(C)N=C(N)[C@](C)(F)CC3(F)F)c2)n1 [Compound 38, N-(3-((2R,5R)-6-amino-3,3,5-trifluoro-2,5-dimethyl-2,3,4,5-tetrahydropyridin-2-yl)-4-fluorophenyl)-1,4-dimethyl-1H-imidazole-2-carboxamide] has a Ki of 1000 nM. Compound Cc1nnc(C(=O)Nc2ccc(F)c([C@@]3(C)N=C(N)[C@@](C)(F)CC3(F)F)c2)o1 [Compound 20, N-(3-((2R,5S)-6-amino-3,3,5-trifluoro-2,5-dimethyl-2,3,4,5-tetrahydropyridin-2-yl)-4-fluorophenyl)-5-methyl-1,3,4-oxadiazole-2-carboxamide] has a Ki of 1600 nM. With C[C@]1(F)CC(F)(F)[C@@](C)(c2cc(NC(=O)c3nccs3)ccc2F)N=C1N [Compound 8, N-(3-((2R,5S)-6-amino-3,3,5-trifluoro-2,5-dimethyl-2,3,4,5-tetrahydropyridin-2-yl)-4-fluorophenyl) thiazole-2-carboxamide] the Ki was 66 nM. C[C@@]1(F)CC(F)(F)[C@@](C)(c2cc(NC(=O)c3ccn(C(F)F)n3)ccc2F)N=C1N [Compound 23, N-(3-((2R,5R)-6-amino-3,3,5-trifluoro-2,5-dimethyl-2,3,4,5-tetrahydropyridin-2-yl)-4-fluorophenyl)-1-(difluoromethyl)-1H-pyrazole-3-carboxamide] gave a Ki of 71 nM. For Cc1csc(C(=O)Nc2ccc(F)c([C@@]3(C)N=C(N)[C@](C)(F)CC3(F)F)c2)n1 [Compound 27, N-(3-((2R,5R)-6-amino-3,3,5-trifluoro-2,5-dimethyl-2,3,4,5-tetrahydropyridin-2-yl)-4-fluorophenyl)-4-methylthiazole-2-carboxamide], the Ki was 140 nM. Cn1cnc(C(=O)Nc2ccc(F)c([C@@]3(C)N=C(N)[C@@](C)(F)CC3(F)F)c2)n1 [Compound 22, N-(3-((2R,5S)-6-amino-3,3,5-trifluoro-2,5-dimethyl-2,3,4,5-tetrahydropyridin-2-yl)-4-fluorophenyl)-1-methyl-1H-1,2,4-triazole-3-carboxamide] showed a Ki of 110 nM. In the case of [2H]C([2H])([2H])Oc1ccc(C(=O)Nc2ccc(F)c([C@@]3(C)N=C(N)[C@@](C)(F)CC3(F)F)c2)nc1 [Compound 48], the Ki is reported as 14 nM. For Cn1cc(Br)nc1C(=O)Nc1ccc(F)c([C@@]2(C)N=C(N)[C@@](C)(F)CC2(F)F)c1 [Compound 9, N-(3-((2R,5S)-6-amino-3,3,5-trifluoro-2,5-dimethyl-2,3,4,5-tetrahydropyridin-2-yl)-4-fluorophenyl)-4-bromo-1-methyl-1H-imidazole-2-carboxamide], the Ki was 100 nM. Compound C[C@@]1(F)CC(F)(F)[C@@](C)(c2cc(NC(=O)c3nc(CF)cs3)ccc2F)N=C1N [Compound 31, N-(3-((2R,5R)-6-amino-3,3,5-trifluoro-2,5-dimethyl-2,3,4,5-tetrahydropyridin-2-yl)-4-fluorophenyl)-4-(fluoromethyl)thiazole-2-carboxamide] has a Ki of 92 nM. C[C@]1(F)CC(F)(F)[C@@](C)(c2cc(NC(=O)c3nc(CF)cs3)ccc2F)N=C1N [Compound 15, N-(3-((2R,5S)-6-amino-3,3,5-trifluoro-2,5-dimethyl-2,3,4,5-tetrahydropyridin-2-yl)-4-fluorophenyl)-4-(fluoromethyl)thiazole-2-carboxamide] gave a Ki of 46 nM. In the case of C[C@]1(F)CC(F)(F)[C@@](C)(c2cc(NC(=O)c3ccn(C(F)F)n3)ccc2F)N=C1N [Compound 6, N-(3-((2R,5S)-6-amino-3,3,5-trifluoro-2,5-dimethyl-2,3,4,5-tetrahydropyridin-2-yl)-4-fluorophenyl)-1-(difluoromethyl)-1H-pyrazole-3-carboxamide], the Ki is reported as 19 nM. In the case of COc1cnc(C(=O)Nc2ccc(F)c([C@@]3(C)N=C(N)[C@@](C)(F)CC3(F)F)c2)nc1 [Compound 12, N-(3-((2R,5S)-6-amino-3,3,5-trifluoro-2,5-dimethyl-2,3,4,5-tetrahydropyridin-2-yl)-4-fluorophenyl)-5-methoxypyrimidine-2-carboxamide], the Ki is reported as 29 nM. Cc1nc(C(=O)Nc2ccc(F)c([C@@]3(C)N=C(N)[C@](C)(F)CC3(F)F)c2)co1 [Compound 34, N-(3-((2R,5R)-6-amino-3,3,5-trifluoro-2,5-dimethyl-2,3,4,5-tetrahydropyridin-2-yl)-4-fluorophenyl)-2-methyloxazole-4-carboxamide] showed a Ki of 210 nM. Cc1noc(C(=O)Nc2ccc(F)c([C@@]3(C)N=C(N)[C@@](C)(F)CC3(F)F)c2)n1 [Compound 21, N-(3-((2R,5S)-6-amino-3,3,5-trifluoro-2,5-dimethyl-2,3,4,5-tetrahydropyridin-2-yl)-4-fluorophenyl)-3-methyl-1,2,4-oxadiazole-5-carboxamide] showed a Ki of 58 nM. C[C@]1(F)CC(F)(F)[C@@](C)(c2cc(NC(=O)c3cnc(C(F)F)cn3)ccc2F)N=C1N [Compound 16, N-(3-((2R,5S)-6-amino-3,3,5-trifluoro-2,5-dimethyl-2,3,4,5-tetrahydropyridin-2-yl)-4-fluorophenyl)-5-(difluoromethyl)pyrazine-2-carboxamide] showed a Ki of 58 nM. With Cc1nc(C(=O)Nc2ccc(F)c([C@@]3(C)N=C(N)[C@@](C)(F)CC3(F)F)c2)c(C)o1 [Compound 47, N-(3-((2R,5S)-6-amino-3,3,5-trifluoro-2,5-dimethyl-2,3,4,5-tetrahydropyridin-2-yl)-4 fluorophenyl)-2,5-dimethyloxazole-4-carboxamide] the Ki was 65 nM. C[C@]1(F)CC(F)(F)[C@@](C)(c2cc(NC(=O)c3ccc(Cl)cn3)ccc2F)N=C1N [Compound 3, N-(3-((2R,5S)-6-amino-3,3,5-trifluoro-2,5-dimethyl-2,3,4,5-tetrahydropyridin-2-yl)-4-fluorophenyl)-5-chloropicolinamide] gave a Ki of 12 nM. In the case of Cn1cc(Br)nc1C(=O)Nc1ccc(F)c([C@@]2(C)N=C(N)[C@](C)(F)CC2(F)F)c1 [Compound 37, N-(3-((2R,5R)-6-amino-3,3,5-trifluoro-2,5-dimethyl-2,3,4,5-tetrahydropyridin-2-yl)-4-fluorophenyl)-4-bromo-1-methyl-1H-imidazole-2-carboxamide], the Ki is reported as 420 nM. Cc1ncc(C(=O)Nc2ccc(F)c([C@@]3(C)N=C(N)[C@](C)(F)CC3(F)F)c2)o1 [Compound 42, N-(3-((2R,5R)-6-amino-3,3,5-trifluoro-2,5-dimethyl-2,3,4,5-tetrahydropyridin-2-yl)-4-fluorophenyl)-2-methyloxazole-5-carboxamide trifluoroacetic acid salt] showed a Ki of 1500 nM. Cc1ccc(C(=O)Nc2ccc(F)c([C@@]3(C)N=C(N)[C@](C)(F)CC3(F)F)c2)o1 [Compound 41, N-(3-((2R,5R)-6-amino-3,3,5-trifluoro-2,5-dimethyl-2,3,4,5-tetrahydropyridin-2-yl)-4-fluorophenyl)-5-methylfuran-2-carboxamide] gave a Ki of 520 nM. Cc1cc(C(=O)Nc2ccc(F)c([C@@]3(C)N=C(N)[C@](C)(F)CC3(F)F)c2)on1 [Compound 40, N-(3-((2R,5R)-6-amino-3,3,5-trifluoro-2,5-dimethyl-2,3,4,5-tetrahydropyridin-2-yl)-4-fluorophenyl)-3-methylisoxazole-5-carboxamide] showed a Ki of 8200 nM. COc1cnc(C(=O)Nc2ccc(F)c([C@@]3(C)N=C(N)[C@](C)(F)CC3(F)F)c2)cn1 [Compound 25, N-(3-((2R,5R)-6-amino-3,3,5-trifluoro-2,5-dimethyl-2,3,4,5-tetrahydropyridin-2-yl)-4-fluorophenyl)-5-methoxypyrazine-2-carboxamide] gave a Ki of 130 nM. Work on C[C@]1(F)CC(F)(F)[C@@](C)(c2cc(NC(=O)c3ccc(OC(F)F)cn3)ccc2F)N=C1N [Compound 45, N-(3-((2R,5S)-6-amino-3,3,5-trifluoro-2,5-dimethyl-2,3,4,5-tetrahydropyridin-2-yl)-4-fluorophenyl)-5-(difluoromethoxy)picolinamide] yielded a Ki of 14 nM. With C[C@@]1(F)CC(F)(F)[C@@](C)(c2cc(NC(=O)c3nc(CF)co3)ccc2F)N=C1N [Compound 30, N-(3-((2R,5R)-6-amino-3,3,5-trifluoro-2,5-dimethyl-2,3,4,5-tetrahydropyridin-2-yl)-4-fluorophenyl)-4-(fluoromethyl)oxazole-2-carboxamide] the Ki was 260 nM. C[C@@]1(F)CC(F)(F)[C@@](C)(c2cc(NC(=O)c3ccc(Cl)cc3)ccc2F)N=C1N [Compound 44, N-(3-((2R,5R)-6-amino-3,3,5-trifluoro-2,5-dimethyl-2,3,4,5-tetrahydropyridin-2-yl)-4-fluorophenyl)-4-chlorobenzamide] was tested, and the Ki was 740 nM. With Cc1csc(C(=O)Nc2ccc(F)c([C@@]3(C)N=C(N)[C@@](C)(F)CC3(F)F)c2)n1 [Compound 10, N-(3-((2R,5S)-6-amino-3,3,5-trifluoro-2,5-dimethyl-2,3,4,5-tetrahydropyridin-2-yl)-4-fluorophenyl)-4-methylthiazole-2-carboxamide] the Ki was 44 nM.
